Assay results: paper PMC7026418, “The kinase polypharmacology landscape of clinical PARP inhibitors” (Scientific Reports, 2020)
Read-outs that look alike come from different tables or passages of the source. Values belong to the compound of their own block, whether it stands above or below them.

Key:
Test in all cases: biochemical
Design in all cases: DiscoveRx KINOMEscan active site-directed competition binding; percent of control kinase bound to immobilised ligand
MKNK2 = MKNK2 (Homo sapiens, UniProt Q9HBH9)
IRAK4 = target: T1, IRAK4 (Homo sapiens, UniProt Q9NWZ3)
T1 sequence (Q9NWZ3 1-460): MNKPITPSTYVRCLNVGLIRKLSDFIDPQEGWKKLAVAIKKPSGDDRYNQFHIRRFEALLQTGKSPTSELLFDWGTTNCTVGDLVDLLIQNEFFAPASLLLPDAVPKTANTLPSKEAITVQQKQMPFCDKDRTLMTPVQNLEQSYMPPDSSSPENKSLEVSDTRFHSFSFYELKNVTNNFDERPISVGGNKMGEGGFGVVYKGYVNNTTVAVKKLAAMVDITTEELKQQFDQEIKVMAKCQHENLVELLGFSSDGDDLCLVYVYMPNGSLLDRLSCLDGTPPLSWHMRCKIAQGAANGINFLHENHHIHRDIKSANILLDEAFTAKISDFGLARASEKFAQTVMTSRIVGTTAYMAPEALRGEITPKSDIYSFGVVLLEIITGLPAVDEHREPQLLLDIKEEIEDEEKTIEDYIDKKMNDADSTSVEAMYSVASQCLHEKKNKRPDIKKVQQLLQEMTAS

ACVRL1 = ACVRL1 (Homo sapiens, UniProt P37023)
NEK6 = NEK6 (Homo sapiens, UniProt Q9HC98)
TEC = target: T2, TEC (Homo sapiens, UniProt P42680)
T2 sequence (P42680 1-631): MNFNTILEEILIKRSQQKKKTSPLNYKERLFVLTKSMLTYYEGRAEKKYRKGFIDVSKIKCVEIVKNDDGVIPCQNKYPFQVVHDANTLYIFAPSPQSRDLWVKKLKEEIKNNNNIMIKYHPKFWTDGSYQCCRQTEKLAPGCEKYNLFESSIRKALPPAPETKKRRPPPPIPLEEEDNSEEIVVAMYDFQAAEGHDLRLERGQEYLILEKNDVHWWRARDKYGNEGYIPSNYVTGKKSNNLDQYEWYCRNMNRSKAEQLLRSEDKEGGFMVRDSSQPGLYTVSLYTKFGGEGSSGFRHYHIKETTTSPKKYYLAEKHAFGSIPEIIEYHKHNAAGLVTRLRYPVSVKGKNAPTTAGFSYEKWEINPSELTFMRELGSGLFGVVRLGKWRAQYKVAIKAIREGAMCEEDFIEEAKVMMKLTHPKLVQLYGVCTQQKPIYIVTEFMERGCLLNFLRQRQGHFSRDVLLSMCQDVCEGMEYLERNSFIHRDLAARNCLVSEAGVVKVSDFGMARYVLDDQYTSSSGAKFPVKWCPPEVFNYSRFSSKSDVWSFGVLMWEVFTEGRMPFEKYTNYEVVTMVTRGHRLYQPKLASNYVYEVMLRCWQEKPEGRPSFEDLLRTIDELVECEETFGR

ULK2 = target: T3, ULK2 (Homo sapiens, UniProt Q8IYT8)
T3 sequence (Q8IYT8 1-1036): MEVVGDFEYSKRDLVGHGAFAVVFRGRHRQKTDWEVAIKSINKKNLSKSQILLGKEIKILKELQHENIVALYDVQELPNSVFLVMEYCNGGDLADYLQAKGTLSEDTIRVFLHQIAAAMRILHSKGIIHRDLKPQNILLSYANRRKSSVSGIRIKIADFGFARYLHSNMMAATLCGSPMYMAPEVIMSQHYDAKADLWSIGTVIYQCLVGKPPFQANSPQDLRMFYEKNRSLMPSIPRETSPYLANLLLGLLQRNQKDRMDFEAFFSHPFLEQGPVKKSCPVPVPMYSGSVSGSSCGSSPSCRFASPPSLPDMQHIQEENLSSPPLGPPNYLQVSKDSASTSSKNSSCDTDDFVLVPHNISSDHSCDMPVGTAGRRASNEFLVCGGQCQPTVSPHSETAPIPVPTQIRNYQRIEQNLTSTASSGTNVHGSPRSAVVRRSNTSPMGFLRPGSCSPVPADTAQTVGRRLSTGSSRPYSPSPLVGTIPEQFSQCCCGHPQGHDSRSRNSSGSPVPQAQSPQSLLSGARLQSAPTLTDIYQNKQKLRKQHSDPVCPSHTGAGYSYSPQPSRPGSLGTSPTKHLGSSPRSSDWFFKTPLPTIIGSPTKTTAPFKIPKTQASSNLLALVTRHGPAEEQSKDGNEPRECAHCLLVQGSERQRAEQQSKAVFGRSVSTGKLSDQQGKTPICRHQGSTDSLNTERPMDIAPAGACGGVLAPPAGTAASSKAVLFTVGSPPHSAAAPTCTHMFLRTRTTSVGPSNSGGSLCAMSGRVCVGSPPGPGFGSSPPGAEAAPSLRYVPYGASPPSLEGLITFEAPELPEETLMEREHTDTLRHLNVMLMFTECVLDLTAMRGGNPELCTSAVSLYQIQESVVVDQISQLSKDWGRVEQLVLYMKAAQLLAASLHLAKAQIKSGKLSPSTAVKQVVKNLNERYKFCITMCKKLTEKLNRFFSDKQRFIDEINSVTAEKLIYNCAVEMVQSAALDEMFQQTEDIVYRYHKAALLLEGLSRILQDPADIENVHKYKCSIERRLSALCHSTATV

[1] = read-out: Niraparib (MK-4827) / %Ctrl @ 10000nM
[2] = read-out: Rucaparib / %Ctrl @ 10000nM, binding competition, % of control
[3] = read-out: Olaparib / %Ctrl @ 10000nM
[4] = read-out: Talazoparib (BMN 673) / %Ctrl @ 10000nM

Sequence of NEK6 (Q9HC98 whole entry): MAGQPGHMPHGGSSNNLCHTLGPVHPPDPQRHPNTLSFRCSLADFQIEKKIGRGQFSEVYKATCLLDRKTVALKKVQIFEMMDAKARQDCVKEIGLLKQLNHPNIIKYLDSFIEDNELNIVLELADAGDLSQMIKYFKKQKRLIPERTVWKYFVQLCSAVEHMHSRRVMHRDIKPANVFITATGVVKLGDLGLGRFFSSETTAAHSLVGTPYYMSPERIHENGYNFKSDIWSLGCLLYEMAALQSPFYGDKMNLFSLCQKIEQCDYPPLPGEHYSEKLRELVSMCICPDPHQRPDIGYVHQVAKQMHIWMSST
Sequence of MKNK2 (Q9HBH9 whole entry): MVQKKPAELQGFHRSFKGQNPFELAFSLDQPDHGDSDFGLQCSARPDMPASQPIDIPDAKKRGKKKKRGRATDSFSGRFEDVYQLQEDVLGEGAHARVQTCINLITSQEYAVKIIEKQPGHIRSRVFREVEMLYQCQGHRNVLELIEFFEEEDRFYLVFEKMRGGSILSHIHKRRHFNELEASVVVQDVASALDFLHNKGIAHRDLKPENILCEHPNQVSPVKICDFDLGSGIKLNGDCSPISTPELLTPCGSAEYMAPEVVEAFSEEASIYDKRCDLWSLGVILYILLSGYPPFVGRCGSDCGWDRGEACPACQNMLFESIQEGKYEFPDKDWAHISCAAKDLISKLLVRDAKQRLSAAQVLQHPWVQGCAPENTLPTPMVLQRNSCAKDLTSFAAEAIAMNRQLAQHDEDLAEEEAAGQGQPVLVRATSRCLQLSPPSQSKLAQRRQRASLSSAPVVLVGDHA
Sequence of ACVRL1 (P37023 whole entry): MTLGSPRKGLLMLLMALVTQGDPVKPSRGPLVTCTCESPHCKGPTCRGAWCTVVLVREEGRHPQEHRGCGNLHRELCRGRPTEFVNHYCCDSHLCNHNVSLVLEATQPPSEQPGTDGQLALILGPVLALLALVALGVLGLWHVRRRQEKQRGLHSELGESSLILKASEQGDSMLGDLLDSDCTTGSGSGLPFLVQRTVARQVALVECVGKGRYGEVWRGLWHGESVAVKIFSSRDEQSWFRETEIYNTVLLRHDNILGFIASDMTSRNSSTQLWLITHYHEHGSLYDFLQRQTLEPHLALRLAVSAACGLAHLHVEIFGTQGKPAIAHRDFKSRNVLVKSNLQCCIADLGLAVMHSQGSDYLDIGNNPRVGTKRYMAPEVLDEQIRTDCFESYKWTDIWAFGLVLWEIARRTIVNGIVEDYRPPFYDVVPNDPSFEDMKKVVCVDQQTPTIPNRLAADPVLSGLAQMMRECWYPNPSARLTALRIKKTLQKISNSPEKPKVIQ

SMILES: NC(=O)c1cccc2cn(-c3ccc([C@@H]4CCCNC4)cc3)nc12 [Niraparib]
- percent of control binding at 10 µM (MKNK2; [1]): 71%
- percent of control binding at 10 µM (IRAK4; [1]): 99%
- percent of control binding at 10 µM (ACVRL1; [1]): 98%
- percent of control binding at 10 µM (NEK6; [1]): 100%
- percent of control binding at 10 µM (TEC; [1]): 76%
- percent of control binding at 10 µM (ULK2; [1]): 93%

- percent of control binding at 10 µM (MKNK2; [2]): 38%
- percent of control binding at 10 µM (IRAK4; [2]): 81%
- percent of control binding at 10 µM (ACVRL1; [2]): 100%
- percent of control binding at 10 µM (NEK6; [2]): 89%
- percent of control binding at 10 µM (TEC; [2]): 100%
- percent of control binding at 10 µM (ULK2; [2]): 74%
SMILES: CNCc1ccc(-c2[nH]c3cc(F)cc4c3c2CCNC4=O)cc1 [Rucaparib]

- percent of control binding at 10 µM (MKNK2; [3]): 87%
- percent of control binding at 10 µM (IRAK4; [3]): 88%
- percent of control binding at 10 µM (ACVRL1; [3]): 97%
- percent of control binding at 10 µM (NEK6; [3]): 96%
- percent of control binding at 10 µM (TEC; [3]): 100%
- percent of control binding at 10 µM (ULK2; [3]): 85%
SMILES: O=C(c1cc(Cc2n[nH]c(=O)c3ccccc23)ccc1F)N1CCN(C(=O)C2CC2)CC1 [Olaparib]

- percent of control binding at 10 µM (MKNK2; [4]): 80%
- percent of control binding at 10 µM (IRAK4; [4]): 85%
- percent of control binding at 10 µM (ACVRL1; [4]): 84%
- percent of control binding at 10 µM (NEK6; [4]): 99%
- percent of control binding at 10 µM (TEC; [4]): 92%
- percent of control binding at 10 µM (ULK2; [4]): 100%
SMILES: Cn1ncnc1[C@H]1c2n[nH]c(=O)c3cc(F)cc(c23)N[C@@H]1c1ccc(F)cc1 [Talazoparib]
